pKi: −log10 of the molar value.
Experiments:
[1] = molecular target: Sodium-dependent dopamine transporter (Rattus norvegicus, UniProt P23977); assay: Binding affinity against dopamine transporter by using [3H]WIN-35428 as a radioligand
[2] = molecular target: Sodium-dependent serotonin transporter (Rattus norvegicus, UniProt P31652); assay: Binding affinity against serotonin transporter by using [3H]-citalopram as a radioligand
[3] = molecular target: Norepinephrine transporter (Rattus norvegicus, UniProt Q9WTR4); assay: Binding affinity against norepinephrine transporter by using [3H]nisoxetine as a radioligand
[4] = molecular target: T1, Muscarinic acetylcholine receptor M1 (Rattus norvegicus, UniProt P08482); assay: Binding affinity against Muscarinic acetylcholine receptor M1 by using [3H]pirenzepine as a radioligand
T1 sequence (P08482 whole entry): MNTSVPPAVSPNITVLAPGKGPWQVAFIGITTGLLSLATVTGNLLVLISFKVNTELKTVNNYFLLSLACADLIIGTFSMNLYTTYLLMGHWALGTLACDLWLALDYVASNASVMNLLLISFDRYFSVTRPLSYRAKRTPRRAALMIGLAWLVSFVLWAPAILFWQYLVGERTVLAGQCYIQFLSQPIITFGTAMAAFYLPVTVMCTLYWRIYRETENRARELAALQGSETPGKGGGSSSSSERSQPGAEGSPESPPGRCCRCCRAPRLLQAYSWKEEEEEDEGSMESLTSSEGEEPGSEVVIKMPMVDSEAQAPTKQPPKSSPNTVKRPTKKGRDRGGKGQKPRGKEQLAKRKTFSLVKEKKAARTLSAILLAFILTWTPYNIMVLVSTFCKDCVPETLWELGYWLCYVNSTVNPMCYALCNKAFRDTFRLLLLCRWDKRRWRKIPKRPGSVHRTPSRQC

Sequence of Sodium-dependent serotonin transporter (P31652 whole entry): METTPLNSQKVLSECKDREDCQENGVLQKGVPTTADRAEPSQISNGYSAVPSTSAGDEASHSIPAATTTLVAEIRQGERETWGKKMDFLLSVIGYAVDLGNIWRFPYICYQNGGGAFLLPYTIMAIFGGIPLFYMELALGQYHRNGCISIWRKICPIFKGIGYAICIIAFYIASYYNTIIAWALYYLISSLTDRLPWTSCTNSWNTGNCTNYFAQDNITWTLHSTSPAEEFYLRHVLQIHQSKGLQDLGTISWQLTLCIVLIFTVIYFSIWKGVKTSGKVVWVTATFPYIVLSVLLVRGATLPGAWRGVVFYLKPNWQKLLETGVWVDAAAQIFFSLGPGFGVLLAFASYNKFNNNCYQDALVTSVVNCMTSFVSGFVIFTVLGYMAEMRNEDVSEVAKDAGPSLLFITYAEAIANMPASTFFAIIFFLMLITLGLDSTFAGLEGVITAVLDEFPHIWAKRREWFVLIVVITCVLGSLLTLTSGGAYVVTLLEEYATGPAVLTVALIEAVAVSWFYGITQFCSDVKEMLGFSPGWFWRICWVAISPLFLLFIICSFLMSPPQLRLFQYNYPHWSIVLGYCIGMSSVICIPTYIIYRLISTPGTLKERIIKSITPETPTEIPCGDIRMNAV
Sequence of Norepinephrine transporter (Q9WTR4 whole entry): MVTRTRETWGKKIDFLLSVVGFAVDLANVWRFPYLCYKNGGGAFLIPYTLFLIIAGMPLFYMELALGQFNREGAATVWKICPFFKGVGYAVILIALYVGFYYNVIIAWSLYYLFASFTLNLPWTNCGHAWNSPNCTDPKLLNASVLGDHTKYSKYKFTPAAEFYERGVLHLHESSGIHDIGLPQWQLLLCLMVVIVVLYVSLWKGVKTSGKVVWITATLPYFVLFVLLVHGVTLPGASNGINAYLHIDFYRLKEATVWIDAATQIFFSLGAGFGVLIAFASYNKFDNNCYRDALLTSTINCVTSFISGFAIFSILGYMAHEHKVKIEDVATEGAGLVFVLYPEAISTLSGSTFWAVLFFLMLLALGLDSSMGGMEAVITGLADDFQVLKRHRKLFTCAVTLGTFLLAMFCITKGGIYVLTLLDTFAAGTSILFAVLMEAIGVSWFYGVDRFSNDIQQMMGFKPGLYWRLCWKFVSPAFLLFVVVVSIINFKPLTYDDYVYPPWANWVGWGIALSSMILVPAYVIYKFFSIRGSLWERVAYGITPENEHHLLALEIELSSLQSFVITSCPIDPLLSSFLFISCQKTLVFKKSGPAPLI
Sequence of Sodium-dependent dopamine transporter (P23977 whole entry): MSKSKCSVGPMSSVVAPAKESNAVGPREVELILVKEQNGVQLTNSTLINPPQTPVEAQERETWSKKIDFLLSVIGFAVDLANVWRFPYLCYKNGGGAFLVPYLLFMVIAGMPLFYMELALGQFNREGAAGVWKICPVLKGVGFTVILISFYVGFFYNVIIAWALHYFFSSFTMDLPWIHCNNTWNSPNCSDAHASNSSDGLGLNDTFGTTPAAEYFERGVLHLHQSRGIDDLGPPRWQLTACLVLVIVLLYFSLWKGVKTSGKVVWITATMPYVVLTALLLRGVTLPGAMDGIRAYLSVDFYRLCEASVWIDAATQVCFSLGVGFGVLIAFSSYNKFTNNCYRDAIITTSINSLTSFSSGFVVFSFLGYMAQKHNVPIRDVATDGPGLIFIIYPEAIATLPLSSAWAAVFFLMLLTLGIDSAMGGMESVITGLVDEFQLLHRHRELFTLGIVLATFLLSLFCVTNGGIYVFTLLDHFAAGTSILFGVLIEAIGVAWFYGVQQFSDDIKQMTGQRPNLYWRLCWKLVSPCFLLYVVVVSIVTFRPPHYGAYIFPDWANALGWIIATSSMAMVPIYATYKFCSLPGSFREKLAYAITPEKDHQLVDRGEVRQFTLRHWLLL

SMILES | pKi [1] | pKi [2] | pKi [3] | pKi [4]
Cc1ccc(C2CC3CCC([C@@H]2COC(c2ccccc2)c2ccc(Cl)cc2)N3C)cc1 (some centres undefined) | 6.03 | 6.00 | 4.65 | 4.74
CN1C2CCC1[C@H](COC(c1ccccc1)c1ccccc1)C(c1ccc(Cl)cc1)C2 (some centres undefined) | 6.32 | 6.39 | 5.40 | 4.94
Cc1ccc(C2CC3CCC([C@@H]2COC(c2ccccc2)c2ccccc2)N3C)cc1 (some centres undefined) | 6.34 | 6.28 | 5.58 | 4.90
CN1C2CCC1[C@H](COC(c1ccc(F)cc1)c1ccc(F)cc1)C(c1ccc(Cl)cc1)C2 (some centres undefined) | 6.60 | 6.14 | 4.28 | 5.00
CN1C2CCC1[C@H](COC(c1ccccc1)c1ccc(Cl)cc1)C(c1ccc(Cl)cc1)C2 (some centres undefined) | 6.26 | 5.89 | 5.25 | 5.02
Cc1ccc(C2CC3CCC([C@@H]2COC(c2ccc(F)cc2)c2ccc(F)cc2)N3C)cc1 (some centres undefined) | 6.16 | 6.10 | 4.80 | 5.01
Cc1ccc(C2CC3CCC([C@H]2COC(c2ccccc2)c2ccc(Cl)cc2)N3C)cc1 (some centres undefined) | 7.10 | 6.35 | 5.36 | 4.50
CN1C2CCC1[C@@H](COC(c1ccc(F)cc1)c1ccc(F)cc1)C(c1ccc(Cl)cc1)C2 (some centres undefined) | 7.00 | 6.61 | 5.54 | 4.79
Cc1ccc(C2CC3CCC([C@H]2COC(c2ccc(F)cc2)c2ccc(F)cc2)N3C)cc1 (some centres undefined) | 7.21 | 6.63 | 5.74 | 4.81
CN1C2CCC1C(CCCOC(c1ccc(F)cc1)c1ccc(F)cc1)C(c1ccccc1)C2 (centres undefined) | 7.22 |  |  | 
CN1C2CCC1[C@@H](COC(c1ccccc1)c1ccc(Cl)cc1)C(c1ccc(Cl)cc1)C2 (some centres undefined) | 7.12 | 6.34 | 5.69 | 4.40
CN1C2CCC1[C@@H](COC(c1ccccc1)c1ccc(Cl)cc1)C(c1ccc(F)cc1)C2 (some centres undefined) | 6.95 |  |  | 
CN1C2CCC1[C@@H](COC(c1ccccc1)c1ccccc1)C(c1ccc(F)cc1)C2 (some centres undefined) | 7.31 |  |  | 
CN1C2CCC1[C@@H](COC(c1ccc(F)cc1)c1ccc(F)cc1)C(c1ccc(F)cc1)C2 (some centres undefined) | 7.20 |  |  | 
Cc1ccc(C2CC3CCC([C@H]2COC(c2ccccc2)c2ccccc2)N3C)cc1 (some centres undefined) | 7.47 | 6.92 | 6.16 | 4.97
CN1C2CCC1C(CCCOC(c1ccccc1)c1ccc(Cl)cc1)C(c1ccccc1)C2 (centres undefined) | 6.58 | 7.35 |  | 4.61
CN1C2CCC1C(CCCOC(c1ccccc1)c1ccccc1)C(c1ccccc1)C2 (centres undefined) | 6.86 | 7.21 | 6.68 | 5.10
CN1C2CCC1[C@@H](COC(c1ccccc1)c1ccccc1)C(c1ccc(Cl)cc1)C2 (some centres undefined) | 7.28 | 6.83 | 5.92 | 4.96

From ChEMBL document CHEMBL1149117, “Synthesis and monoamine transporter binding of 2-(diarylmethoxymethyl)-3 beta-aryltropane derivatives” (J Med Chem, 2004)
